Source: publication PMC8401933 (Molecules, 2021)

Assays:
KIT = molecular target: T1, KIT (Homo sapiens, UniProt P10721); experiment: KINOMEscan binding; conditions: read-out: Percent Control
T1 construct: purchased Eurofins DiscoverX KINOMEscan

RET(V804L) = molecular target: T2, RET(V804L) (Homo sapiens, UniProt P07949, V804L); experiment: KINOMEscan binding; conditions: read-out: Percent Control
T2 construct: purchased Eurofins DiscoverX KINOMEscan

PIK3CB = molecular target: T3, PIK3CB (Homo sapiens, UniProt P42338); experiment: KINOMEscan binding; conditions: read-out: Percent Control
T3 construct: purchased Eurofins DiscoverX KINOMEscan

MYO3A = molecular target: T4, MYO3A (Homo sapiens, UniProt Q8NEV4); experiment: KINOMEscan binding; conditions: read-out: Percent Control
T4 construct: purchased Eurofins DiscoverX KINOMEscan

ROCK2 = tested on: ROCK2; parameters: method as in PMID 18832915; conditions: cited from earlier work
BLK = molecular target: T5, BLK (Homo sapiens, UniProt P51451); experiment: KINOMEscan binding; conditions: read-out: Percent Control
T5 construct: purchased Eurofins DiscoverX KINOMEscan

FES = molecular target: T6, FES (Homo sapiens, UniProt P07332); experiment: KINOMEscan binding; conditions: read-out: Percent Control
T6 construct: purchased Eurofins DiscoverX KINOMEscan

DMPK2 = molecular target: T7, DMPK2 (Homo sapiens, UniProt Q6DT37); experiment: KINOMEscan binding; conditions: read-out: Percent Control
T7 construct: purchased Eurofins DiscoverX KINOMEscan

CDK4-cyclinD3 = molecular target: T8, CDK4-cyclinD3 (Homo sapiens, UniProt P11802); experiment: KINOMEscan binding; conditions: read-out: Percent Control
T8 construct: purchased Eurofins DiscoverX KINOMEscan

RET = molecular target: T9, RET (Homo sapiens, UniProt P07949); experiment: KINOMEscan binding; conditions: read-out: Percent Control
T9 construct: purchased Eurofins DiscoverX KINOMEscan

CLK2 = molecular target: T10, CLK2 (Homo sapiens, UniProt P49760); experiment: KINOMEscan binding; conditions: read-out: Percent Control
T10 construct: purchased Eurofins DiscoverX KINOMEscan

WNK2 = molecular target: T11, WNK2 (Homo sapiens, UniProt Q9Y3S1); experiment: KINOMEscan binding; conditions: read-out: Percent Control
T11 construct: purchased Eurofins DiscoverX KINOMEscan

CAMK2G = molecular target: T12, CAMK2G (Homo sapiens, UniProt Q13555); experiment: KINOMEscan binding; conditions: read-out: Percent Control
T12 construct: purchased Eurofins DiscoverX KINOMEscan

RIPK4 = molecular target: T13, RIPK4 (Homo sapiens, UniProt P57078); experiment: KINOMEscan binding; conditions: read-out: Percent Control
T13 construct: purchased Eurofins DiscoverX KINOMEscan

SRPK2 = molecular target: T14, SRPK2 (Homo sapiens, UniProt P78362); experiment: KINOMEscan binding; conditions: read-out: Percent Control
T14 construct: purchased Eurofins DiscoverX KINOMEscan

DDR1 = molecular target: T15, DDR1 (Homo sapiens, UniProt Q08345); experiment: KINOMEscan binding; conditions: read-out: Percent Control
T15 construct: purchased Eurofins DiscoverX KINOMEscan

PFPK5(P.falciparum) = molecular target: T16, PFPK5(P.falciparum) (Plasmodium falciparum, UniProt P61075); experiment: KINOMEscan binding; conditions: read-out: Percent Control
T16 construct: purchased Eurofins DiscoverX KINOMEscan

EPHB6 = molecular target: T17, EPHB6 (Homo sapiens, UniProt O15197); experiment: KINOMEscan binding; conditions: read-out: Percent Control
T17 construct: purchased Eurofins DiscoverX KINOMEscan

SGK3 = molecular target: T18, SGK3 (Homo sapiens, UniProt Q96BR1); experiment: KINOMEscan binding; conditions: read-out: Percent Control
T18 construct: purchased Eurofins DiscoverX KINOMEscan

PHKG2 = molecular target: T19, PHKG2 (Homo sapiens, UniProt P15735); experiment: KINOMEscan binding; conditions: read-out: Percent Control
T19 construct: purchased Eurofins DiscoverX KINOMEscan

[1] = molecular target: T20, RPS6KA5(Kin.Dom.1-N-terminal) (Homo sapiens, UniProt O75582); experiment: KINOMEscan binding; conditions: read-out: Percent Control
T20 construct: RPS6KA5(Kin.Dom.1-N-terminal); purchased Eurofins DiscoverX KINOMEscan

[2] = molecular target: T21, ABL1(F317I)-nonphosphorylated (Homo sapiens, UniProt P00519, F317I); experiment: KINOMEscan binding; conditions: read-out: Percent Control
T21 construct: purchased Eurofins DiscoverX KINOMEscan

STK39 = molecular target: T22, STK39 (Homo sapiens, UniProt Q9UEW8); experiment: KINOMEscan binding; conditions: read-out: Percent Control
T22 construct: purchased Eurofins DiscoverX KINOMEscan

GAK = molecular target: T23, GAK (Homo sapiens, UniProt O14976); experiment: KINOMEscan binding; conditions: read-out: Percent Control
T23 construct: purchased Eurofins DiscoverX KINOMEscan

[3] = molecular target: T24, ABL1(H396P)-phosphorylated (Homo sapiens, UniProt P00519, H396P); experiment: KINOMEscan binding; conditions: read-out: Percent Control
T24 construct: purchased Eurofins DiscoverX KINOMEscan

FRK = molecular target: T25, FRK (Homo sapiens, UniProt P42685); experiment: KINOMEscan binding; conditions: read-out: Percent Control
T25 construct: purchased Eurofins DiscoverX KINOMEscan

CLK1 = molecular target: T26, CLK1 (Homo sapiens, UniProt P49759); experiment: KINOMEscan binding; conditions: read-out: Percent Control
T26 construct: purchased Eurofins DiscoverX KINOMEscan

CSNK2A2 = molecular target: T27, CSNK2A2 (Homo sapiens, UniProt P19784); experiment: KINOMEscan binding; conditions: read-out: Percent Control
T27 construct: purchased Eurofins DiscoverX KINOMEscan

KIT(V559D) = molecular target: T28, KIT(V559D) (Homo sapiens, UniProt P10721, V559D); experiment: KINOMEscan binding; conditions: read-out: Percent Control
T28 construct: purchased Eurofins DiscoverX KINOMEscan

MUSK = molecular target: T29, MUSK (Homo sapiens, UniProt O15146); experiment: KINOMEscan binding; conditions: read-out: Percent Control
T29 construct: purchased Eurofins DiscoverX KINOMEscan

CDK5 = molecular target: T30, CDK5 (Homo sapiens, UniProt Q00535); experiment: KINOMEscan binding; conditions: read-out: Percent Control
T30 construct: purchased Eurofins DiscoverX KINOMEscan

CAMK1D = molecular target: T31, CAMK1D (Homo sapiens, UniProt Q8IU85); experiment: KINOMEscan binding; conditions: read-out: Percent Control
T31 construct: purchased Eurofins DiscoverX KINOMEscan

MRCKB = molecular target: T32, MRCKB (Homo sapiens, UniProt Q9Y5S2); experiment: KINOMEscan binding; conditions: read-out: Percent Control
T32 construct: purchased Eurofins DiscoverX KINOMEscan

EPHA1 = molecular target: T33, EPHA1 (Homo sapiens, UniProt P21709); experiment: KINOMEscan binding; conditions: read-out: Percent Control
T33 construct: purchased Eurofins DiscoverX KINOMEscan

AMPK-alpha2 = molecular target: T34, AMPK-alpha2 (Homo sapiens, UniProt P54646); experiment: KINOMEscan binding; conditions: read-out: Percent Control
T34 construct: purchased Eurofins DiscoverX KINOMEscan

FLT3(ITD,F691L) = experiment: KINOMEscan binding; parameters: species or system human; conditions: 10 μM
CDK3 = molecular target: T35, CDK3 (Homo sapiens, UniProt Q00526); experiment: KINOMEscan binding; conditions: read-out: Percent Control
T35 construct: purchased Eurofins DiscoverX KINOMEscan

CDK4 = molecular target: T36, CDK4 (Homo sapiens, UniProt P11802); experiment: KINOMEscan binding; conditions: read-out: Percent Control
T36 construct: purchased Eurofins DiscoverX KINOMEscan

HPK1 = molecular target: T37, HPK1 (Homo sapiens, UniProt Q92918); experiment: KINOMEscan binding; conditions: read-out: Percent Control
T37 construct: purchased Eurofins DiscoverX KINOMEscan

IGF1R = molecular target: T38, IGF1R (Homo sapiens, UniProt P08069); experiment: KINOMEscan binding; conditions: read-out: Percent Control
T38 construct: purchased Eurofins DiscoverX KINOMEscan

PRKR = molecular target: T39, PRKR (Homo sapiens, UniProt P19525); experiment: KINOMEscan binding; conditions: read-out: Percent Control
T39 construct: purchased Eurofins DiscoverX KINOMEscan

PIK3CA(E542K) = molecular target: T40, PIK3CA(E542K) (Homo sapiens, UniProt P42336, E542K); experiment: KINOMEscan binding; conditions: read-out: Percent Control
T40 construct: purchased Eurofins DiscoverX KINOMEscan

SIK = molecular target: T41, SIK (Homo sapiens, UniProt P57059); experiment: KINOMEscan binding; conditions: read-out: Percent Control
T41 construct: purchased Eurofins DiscoverX KINOMEscan

DMPK = molecular target: T42, DMPK (Homo sapiens, UniProt Q09013); experiment: KINOMEscan binding; conditions: read-out: Percent Control
T42 construct: purchased Eurofins DiscoverX KINOMEscan

T14 sequence (P78362 whole entry): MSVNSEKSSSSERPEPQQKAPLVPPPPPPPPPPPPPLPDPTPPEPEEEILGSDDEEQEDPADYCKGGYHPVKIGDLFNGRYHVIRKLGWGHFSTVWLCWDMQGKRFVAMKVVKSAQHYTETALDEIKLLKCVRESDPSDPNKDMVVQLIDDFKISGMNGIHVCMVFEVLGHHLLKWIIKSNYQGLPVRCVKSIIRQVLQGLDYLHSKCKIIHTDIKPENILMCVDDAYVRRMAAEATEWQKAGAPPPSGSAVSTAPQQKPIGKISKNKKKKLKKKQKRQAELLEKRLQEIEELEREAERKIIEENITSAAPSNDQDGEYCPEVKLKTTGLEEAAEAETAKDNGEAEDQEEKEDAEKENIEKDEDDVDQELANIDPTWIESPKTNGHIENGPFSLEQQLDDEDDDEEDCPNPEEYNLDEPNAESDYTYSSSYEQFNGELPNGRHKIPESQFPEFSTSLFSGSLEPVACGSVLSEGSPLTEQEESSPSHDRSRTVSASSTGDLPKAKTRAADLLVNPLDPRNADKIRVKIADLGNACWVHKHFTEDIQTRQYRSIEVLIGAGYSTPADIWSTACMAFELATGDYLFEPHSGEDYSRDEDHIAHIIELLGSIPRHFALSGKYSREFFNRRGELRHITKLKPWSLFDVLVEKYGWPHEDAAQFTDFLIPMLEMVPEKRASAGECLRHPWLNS
T18 sequence (Q96BR1 whole entry): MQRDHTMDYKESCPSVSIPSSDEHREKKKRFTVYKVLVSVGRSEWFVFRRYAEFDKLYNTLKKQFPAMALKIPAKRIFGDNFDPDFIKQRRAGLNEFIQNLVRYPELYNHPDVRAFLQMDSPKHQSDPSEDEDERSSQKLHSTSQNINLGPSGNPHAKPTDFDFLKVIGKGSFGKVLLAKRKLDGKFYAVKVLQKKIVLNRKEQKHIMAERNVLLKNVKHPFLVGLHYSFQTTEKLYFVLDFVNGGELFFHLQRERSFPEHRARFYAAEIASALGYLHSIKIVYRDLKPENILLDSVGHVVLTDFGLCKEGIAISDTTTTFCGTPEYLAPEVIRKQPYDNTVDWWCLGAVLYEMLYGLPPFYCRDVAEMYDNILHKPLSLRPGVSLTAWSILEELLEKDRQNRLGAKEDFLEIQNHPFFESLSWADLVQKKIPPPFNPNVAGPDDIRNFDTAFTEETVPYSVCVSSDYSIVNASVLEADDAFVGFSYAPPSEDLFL
T35 sequence (Q00526 whole entry): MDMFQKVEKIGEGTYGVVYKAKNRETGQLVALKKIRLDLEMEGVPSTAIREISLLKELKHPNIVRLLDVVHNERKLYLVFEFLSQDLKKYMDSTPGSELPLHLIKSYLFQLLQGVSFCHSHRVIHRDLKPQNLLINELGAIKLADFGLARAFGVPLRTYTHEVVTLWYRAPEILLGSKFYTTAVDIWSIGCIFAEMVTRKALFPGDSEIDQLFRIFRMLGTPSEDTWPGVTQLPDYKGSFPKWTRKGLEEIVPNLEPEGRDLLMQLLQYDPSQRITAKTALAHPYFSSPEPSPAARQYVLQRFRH
T5 sequence (P51451 whole entry): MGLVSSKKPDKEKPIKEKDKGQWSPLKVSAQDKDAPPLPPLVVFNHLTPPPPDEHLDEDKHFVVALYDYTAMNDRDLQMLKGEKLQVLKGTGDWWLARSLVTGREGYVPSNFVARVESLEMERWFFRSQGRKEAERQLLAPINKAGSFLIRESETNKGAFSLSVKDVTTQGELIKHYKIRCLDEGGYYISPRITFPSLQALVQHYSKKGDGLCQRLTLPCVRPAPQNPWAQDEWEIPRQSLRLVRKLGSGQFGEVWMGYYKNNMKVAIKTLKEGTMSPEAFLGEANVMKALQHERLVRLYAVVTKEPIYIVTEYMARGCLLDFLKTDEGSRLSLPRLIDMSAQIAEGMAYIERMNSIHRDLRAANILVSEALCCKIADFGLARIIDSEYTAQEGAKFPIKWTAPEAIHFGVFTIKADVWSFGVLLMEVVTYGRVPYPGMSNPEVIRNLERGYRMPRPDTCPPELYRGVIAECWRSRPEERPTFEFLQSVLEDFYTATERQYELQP
T8 sequence (P11802 whole entry): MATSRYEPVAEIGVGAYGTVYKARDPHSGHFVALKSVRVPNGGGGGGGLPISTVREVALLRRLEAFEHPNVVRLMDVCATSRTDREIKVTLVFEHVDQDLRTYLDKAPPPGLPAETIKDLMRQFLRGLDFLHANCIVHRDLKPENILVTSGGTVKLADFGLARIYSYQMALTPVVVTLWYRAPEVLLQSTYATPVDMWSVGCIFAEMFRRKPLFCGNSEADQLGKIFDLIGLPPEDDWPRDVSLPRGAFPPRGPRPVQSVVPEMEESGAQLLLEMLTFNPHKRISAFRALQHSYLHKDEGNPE
T8 sequence (P30281 whole entry partner): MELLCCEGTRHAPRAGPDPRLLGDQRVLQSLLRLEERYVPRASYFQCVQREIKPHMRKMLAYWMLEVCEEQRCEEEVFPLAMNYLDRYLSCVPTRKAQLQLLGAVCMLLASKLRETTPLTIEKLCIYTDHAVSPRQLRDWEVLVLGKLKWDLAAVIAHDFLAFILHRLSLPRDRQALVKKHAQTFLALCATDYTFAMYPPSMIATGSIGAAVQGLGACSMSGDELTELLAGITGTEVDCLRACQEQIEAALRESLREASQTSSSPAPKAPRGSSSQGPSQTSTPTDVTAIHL
T36 sequence (P11802 whole entry): as the sequence (P11802 whole entry) above
T2 sequence (P07949 29-1114 V804L): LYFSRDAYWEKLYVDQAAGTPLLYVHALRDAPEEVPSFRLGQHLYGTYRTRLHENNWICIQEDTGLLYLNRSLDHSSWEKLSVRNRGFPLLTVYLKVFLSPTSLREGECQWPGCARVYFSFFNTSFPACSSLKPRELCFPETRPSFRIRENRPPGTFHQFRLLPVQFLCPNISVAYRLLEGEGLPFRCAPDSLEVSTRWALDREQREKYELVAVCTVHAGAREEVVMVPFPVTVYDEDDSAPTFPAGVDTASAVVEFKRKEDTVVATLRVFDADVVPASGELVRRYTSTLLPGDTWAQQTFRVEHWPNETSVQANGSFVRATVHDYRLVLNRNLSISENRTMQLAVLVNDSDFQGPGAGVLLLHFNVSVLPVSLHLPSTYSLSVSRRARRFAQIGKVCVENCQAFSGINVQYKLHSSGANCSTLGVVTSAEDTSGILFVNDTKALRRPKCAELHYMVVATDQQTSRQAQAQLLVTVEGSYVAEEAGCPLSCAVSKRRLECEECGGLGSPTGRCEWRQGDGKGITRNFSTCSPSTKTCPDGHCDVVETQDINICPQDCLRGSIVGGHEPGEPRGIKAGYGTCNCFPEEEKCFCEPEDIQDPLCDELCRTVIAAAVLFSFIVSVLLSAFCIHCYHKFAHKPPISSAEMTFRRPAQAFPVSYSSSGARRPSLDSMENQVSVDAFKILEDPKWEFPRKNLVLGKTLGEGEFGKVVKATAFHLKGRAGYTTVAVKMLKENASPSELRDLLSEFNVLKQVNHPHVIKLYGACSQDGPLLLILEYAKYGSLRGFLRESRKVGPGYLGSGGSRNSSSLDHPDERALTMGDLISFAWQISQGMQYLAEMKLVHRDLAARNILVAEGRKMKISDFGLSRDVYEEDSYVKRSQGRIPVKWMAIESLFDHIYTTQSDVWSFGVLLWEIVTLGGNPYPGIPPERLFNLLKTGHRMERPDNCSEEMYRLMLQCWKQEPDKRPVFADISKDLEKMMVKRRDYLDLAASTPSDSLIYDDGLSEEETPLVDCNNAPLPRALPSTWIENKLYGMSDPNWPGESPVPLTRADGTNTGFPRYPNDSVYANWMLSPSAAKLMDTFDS
T6 sequence (P07332 whole entry): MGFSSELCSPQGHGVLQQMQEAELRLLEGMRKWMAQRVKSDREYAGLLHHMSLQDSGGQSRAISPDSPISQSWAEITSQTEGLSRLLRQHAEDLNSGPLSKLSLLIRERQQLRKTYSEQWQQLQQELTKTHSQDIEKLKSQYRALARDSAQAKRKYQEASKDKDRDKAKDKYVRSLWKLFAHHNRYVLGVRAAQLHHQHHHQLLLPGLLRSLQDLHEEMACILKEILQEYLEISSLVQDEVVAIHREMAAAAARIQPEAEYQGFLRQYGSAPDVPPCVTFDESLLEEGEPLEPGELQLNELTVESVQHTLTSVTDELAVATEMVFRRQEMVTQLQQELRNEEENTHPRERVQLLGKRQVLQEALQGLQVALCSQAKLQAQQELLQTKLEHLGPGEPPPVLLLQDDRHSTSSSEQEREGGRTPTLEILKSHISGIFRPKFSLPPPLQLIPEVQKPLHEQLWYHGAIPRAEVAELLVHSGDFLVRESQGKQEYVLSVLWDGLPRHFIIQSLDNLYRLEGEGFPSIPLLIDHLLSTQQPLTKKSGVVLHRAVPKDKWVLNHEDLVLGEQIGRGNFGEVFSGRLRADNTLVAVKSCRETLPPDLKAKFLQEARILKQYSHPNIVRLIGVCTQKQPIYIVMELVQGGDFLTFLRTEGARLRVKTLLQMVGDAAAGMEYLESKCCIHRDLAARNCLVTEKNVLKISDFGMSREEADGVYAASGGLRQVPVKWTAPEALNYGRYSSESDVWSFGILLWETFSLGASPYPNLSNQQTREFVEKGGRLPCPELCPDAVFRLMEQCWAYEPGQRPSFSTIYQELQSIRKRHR
T16 sequence (P61075 whole entry): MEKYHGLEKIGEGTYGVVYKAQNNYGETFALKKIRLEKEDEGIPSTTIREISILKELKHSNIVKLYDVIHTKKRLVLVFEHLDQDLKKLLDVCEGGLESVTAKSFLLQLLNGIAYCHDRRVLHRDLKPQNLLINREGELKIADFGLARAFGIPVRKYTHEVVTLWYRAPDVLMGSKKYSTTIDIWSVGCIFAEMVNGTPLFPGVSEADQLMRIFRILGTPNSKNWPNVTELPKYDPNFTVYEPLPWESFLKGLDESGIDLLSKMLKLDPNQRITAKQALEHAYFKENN
T9 sequence (P07949 29-1114): as the sequence (P07949 29-1114 V804L) above, with L776V counted along it

CC(C)NC(=O)COc1cccc(-c2nc(Nc3ccc4[nH]ncc4c3)c3ccccc3n2)c1 [KD025, 2-(3-(4-((1H-indazol-5-yl)amino)quinazolin-2-yl)phenoxy)-N-isopropylacetamide] showed a remaining binding at 10 µM (KIT) of 79%, a remaining binding at 10 µM (RET(V804L)) of 67% and a remaining binding at 10 µM (PIK3CB) of 89%. The remaining binding at 10 µM (MYO3A) was 94%, the IC50 (ROCK2) was […] and the remaining binding at 10 µM (BLK) was 11%. For the same compound, the remaining binding at 10 µM (FES) was 94%, the remaining binding at 10 µM (DMPK2) was 3.9% and the remaining binding at 10 µM (CDK4-cyclinD3) was 53%. The remaining binding at 10 µM (RET) was 88%, the remaining binding at 10 µM (CLK2) was 51% and the remaining binding at 10 µM (WNK2) was 88%. It also gave a remaining binding at 10 µM (CAMK2G) of 99%, a remaining binding at 10 µM (RIPK4) of 100% and a remaining binding at 10 µM (SRPK2) of 66%. For the same compound, the remaining binding at 10 µM (DDR1) was 6.4%, the remaining binding at 10 µM (PFPK5(P.falciparum)) was 100% and the remaining binding at 10 µM (EPHB6) was 67%. It also gave a remaining binding at 10 µM (SGK3) of 79%, a remaining binding at 10 µM (PHKG2) of 100% and a remaining binding at 10 µM [1] of 100%. For the same compound, the remaining binding at 10 µM [2] was 98%, the remaining binding at 10 µM (STK39) was 100% and the remaining binding at 10 µM (GAK) was 10%. For the same compound, the remaining binding at 10 µM [3] was 82%, the remaining binding at 10 µM (FRK) was 78% and the remaining binding at 10 µM (CLK1) was 57%. It also gave a remaining binding at 10 µM (CSNK2A2) of 0.5%, a remaining binding at 10 µM (KIT(V559D)) of 72% and a remaining binding at 10 µM (MUSK) of 59%. For the same compound, the remaining binding at 10 µM (CDK5) was 83%, the remaining binding at 10 µM (CAMK1D) was 100% and the remaining binding at 10 µM (MRCKB) was 1%. For the same compound, the remaining binding at 10 µM (EPHA1) was 88%, the remaining binding at 10 µM (AMPK-alpha2) was 75% and the “Percent Control” value (FLT3(ITD,F691L)) was 52%. It also gave a remaining binding at 10 µM (CDK3) of 92%, a remaining binding at 10 µM (CDK4) of 100% and a remaining binding at 10 µM (HPK1) of 76%. It also gave a remaining binding at 10 µM (IGF1R) of 56%, a remaining binding at 10 µM (PRKR) of 54% and a remaining binding at 10 µM (PIK3CA(E542K)) of 78%. For the same compound, the remaining binding at 10 µM (SIK) was 72% and the remaining binding at 10 µM (DMPK) was 97%.
